Key:
[1] = tested on: MDA-MB-231; assay: Antiproliferative activity against human MDA-MB-231 cells; type: functional, cell-based
[2] = Antiproliferative activity against human PC3 cells; type: functional, cell-based; conditions: PC-3
[3] = biological target: Dual specificity tyrosine-phosphorylation-regulated kinase 1A (Homo sapiens, UniProt Q13627); assay: Inhibition of DYRK1A (unknown origin)
[4] = biological target: Glycogen synthase kinase-3 (Homo sapiens, UniProt P49840+P49841); assay: Inhibition of GSK3alpha/beta (unknown origin); type: protein assay
[5] = Antiproliferative activity against human fibroblast cells; type: cell-based
[6] = Antiproliferative activity against human Caco2 cells; type: functional, cell-based; conditions: Caco-2
[7] = Antiproliferative activity against human HuH7 cells; type: functional, cell-based; conditions: Huh-7
[8] = tested on: NCI-H727; assay: Antiproliferative activity against human NCI-H727 cells; type: functional, cell-based
[9] = biological target: Cyclin-dependent kinase 5/CDK5 activator 1 (Homo sapiens, UniProt Q00535); assay: Inhibition of CDK5/p25 (unknown origin); type: protein-complex assay
Cyclin-dependent kinase 5/CDK5 activator 1, sequence (Q00535 whole entry, canonical isoform): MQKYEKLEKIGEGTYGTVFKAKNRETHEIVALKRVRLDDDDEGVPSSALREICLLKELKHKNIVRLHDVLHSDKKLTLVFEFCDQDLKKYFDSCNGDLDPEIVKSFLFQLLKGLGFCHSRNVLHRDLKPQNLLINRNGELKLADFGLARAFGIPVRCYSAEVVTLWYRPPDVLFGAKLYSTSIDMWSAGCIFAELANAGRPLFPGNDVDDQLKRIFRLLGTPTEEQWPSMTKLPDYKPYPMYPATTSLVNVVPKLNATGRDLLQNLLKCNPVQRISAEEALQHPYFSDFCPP
Cyclin-dependent kinase 5/CDK5 activator 1, sequence (Q15078 whole entry, further chain, canonical isoform): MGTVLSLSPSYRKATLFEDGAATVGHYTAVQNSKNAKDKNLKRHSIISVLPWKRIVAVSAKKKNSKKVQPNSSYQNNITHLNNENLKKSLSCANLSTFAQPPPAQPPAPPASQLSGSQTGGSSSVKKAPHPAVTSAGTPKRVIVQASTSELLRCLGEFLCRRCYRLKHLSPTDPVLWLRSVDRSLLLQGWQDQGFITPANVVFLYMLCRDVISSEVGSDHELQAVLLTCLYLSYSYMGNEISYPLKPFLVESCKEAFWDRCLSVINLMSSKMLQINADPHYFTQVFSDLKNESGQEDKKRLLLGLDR

[10] = biological target: Phosphatidylinositol 4,5-bisphosphate 3-kinase catalytic subunit alpha isoform (Homo sapiens, UniProt P42336); assay: Inhibition of p110alpha (unknown origin)
Phosphatidylinositol 4,5-bisphosphate 3-kinase catalytic subunit alpha isoform, sequence (P42336 whole entry, canonical isoform): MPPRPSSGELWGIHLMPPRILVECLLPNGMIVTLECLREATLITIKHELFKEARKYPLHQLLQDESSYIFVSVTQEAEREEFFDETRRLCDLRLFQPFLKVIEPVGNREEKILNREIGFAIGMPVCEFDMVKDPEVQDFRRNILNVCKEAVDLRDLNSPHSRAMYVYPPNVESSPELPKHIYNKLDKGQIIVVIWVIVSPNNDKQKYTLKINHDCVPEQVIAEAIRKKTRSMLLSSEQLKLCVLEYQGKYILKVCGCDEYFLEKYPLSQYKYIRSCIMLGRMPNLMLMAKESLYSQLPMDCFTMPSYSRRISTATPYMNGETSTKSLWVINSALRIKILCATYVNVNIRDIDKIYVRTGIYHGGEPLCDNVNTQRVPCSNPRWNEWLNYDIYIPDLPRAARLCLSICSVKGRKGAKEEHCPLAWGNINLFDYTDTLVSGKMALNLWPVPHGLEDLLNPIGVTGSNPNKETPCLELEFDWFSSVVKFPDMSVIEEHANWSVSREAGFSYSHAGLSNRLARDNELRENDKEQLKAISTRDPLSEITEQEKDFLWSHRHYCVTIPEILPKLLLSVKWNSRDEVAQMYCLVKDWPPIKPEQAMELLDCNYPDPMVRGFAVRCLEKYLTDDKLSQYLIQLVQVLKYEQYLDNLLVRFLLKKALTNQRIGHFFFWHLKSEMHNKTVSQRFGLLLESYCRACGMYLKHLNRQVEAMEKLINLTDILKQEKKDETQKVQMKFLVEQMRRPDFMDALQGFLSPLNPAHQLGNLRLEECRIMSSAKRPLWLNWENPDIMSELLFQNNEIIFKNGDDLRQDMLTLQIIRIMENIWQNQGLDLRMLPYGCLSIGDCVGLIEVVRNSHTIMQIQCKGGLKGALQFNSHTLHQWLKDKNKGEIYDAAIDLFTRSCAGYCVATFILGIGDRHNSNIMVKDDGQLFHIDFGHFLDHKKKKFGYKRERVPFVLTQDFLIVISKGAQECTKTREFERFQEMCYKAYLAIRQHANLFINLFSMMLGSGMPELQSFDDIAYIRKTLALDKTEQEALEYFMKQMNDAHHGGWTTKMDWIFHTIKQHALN

[11] = Antiproliferative activity against human HCT116 cells; type: functional, cell-based; conditions: HCT-116
[12] = tested on: MDA-MB-231; assay: Antiproliferative activity against human MDA-MB-231 cells assessed as decrease in cell growth; type: functional
[13] = Antiproliferative activity against human HuH7 cells assessed as decrease in cell growth; type: functional, Huh-7
[14] = Antiproliferative activity against human HCT116 cells assessed as decrease in cell growth; type: functional, HCT-116

Compound	IC50 [1]	IC50 [3]	IC50 [4]	IC50 [8]	IC50 [9]	IC50 [10]	IC50 [2]	IC50 [5]	IC50 [6]	IC50 [7]	IC50 [11]	inhibition (INH) [12]	inhibition (INH) [13]	inhibition (INH) [14]
COc1ccc2[nH]c3c(=O)[nH]nc(-c4ccccc4)c3c2c1		> 10 µM	1.3 µM			> 10 µM								
COc1ccc(Nc2cc(C)n[nH]c2=O)cc1		> 10 µM	> 10 µM		> 10 µM									
COc1ccc(Nc2cc(-c3ccco3)n[nH]c2=O)cc1	> 25 µM	> 10 µM	> 10 µM	> 25 µM	> 10 µM	> 10 µM	> 25 µM	> 25 µM	> 25 µM	> 25 µM	> 25 µM			
COc1ccc(Nc2cc(-c3ccccc3)n[nH]c2=O)cc1	> 25 µM	> 10 µM	> 10 µM	> 25 µM	> 10 µM	> 10 µM	> 25 µM	> 25 µM	> 25 µM	> 25 µM	> 25 µM			
COc1ccc2[nH]c3c(=O)[nH]nc(-c4ccc(C(F)(F)F)cc4)c3c2c1	> 25 µM	> 10 µM	> 10 µM	> 25 µM	> 10 µM	6.9 µM	> 25 µM	> 25 µM	> 25 µM	> 25 µM	> 25 µM			

Stronger by IC50 [3], values ahead:

IC50 [1]	IC50 [3]	IC50 [4]	IC50 [8]	IC50 [9]	IC50 [10]	Compound	IC50 [2]	IC50 [5]	IC50 [6]	IC50 [7]	IC50 [11]	inhibition (INH) [12]	inhibition (INH) [13]	inhibition (INH) [14]
> 25 µM	1.5 µM	1.4 µM	> 25 µM	> 10 µM	> 10 µM	COc1ccc(-c2n[nH]c(=O)c3[nH]c4ccc(OC)cc4c23)cc1	> 25 µM	> 25 µM	> 25 µM	> 25 µM	> 25 µM			
> 25 µM	0.61 µM	9.6 µM	> 25 µM	> 10 µM	> 10 µM	COc1ccc(Nc2cc(-c3ccncc3)n[nH]c2=O)cc1	> 25 µM	> 25 µM	> 25 µM	> 25 µM	> 25 µM			
	5 µM	> 10 µM		> 10 µM		COc1ccc2[nH]c3c(=O)[nH]nc(C)c3c2c1	7 µM	20 µM	8 µM	3 µM	15 µM			
	5.1 µM	2.5 µM		> 10 µM		COc1ccc(Nc2cc(-c3ccc(OC)cc3)n[nH]c2=O)cc1								
0.3 µM	0.22 µM	> 10 µM	> 25 µM	> 10 µM	> 10 µM	COc1ccc2[nH]c3c(=O)[nH]nc(-c4ccco4)c3c2c1	> 25 µM	> 25 µM	0.6 µM	0.25 µM	3 µM	50%	50%	50%

— ChEMBL document CHEMBL3351708, “Synthesis of new pyridazino[4,5-b]indol-4-ones and pyridazin-3(2H)-one analogs as DYRK1A inhibitors” (Bioorg Med Chem Lett, 2014)
